Consider 25 compounds from patent publication US9556158B2, “Fungicidal 3-[(pyridin-2-ylmethoxyimino)(phenyl)methyl]-2-substituted-1,2,4-oxadiazol-5(2H)-one derivatives” (BAYER INTELLECTUAL PROPERTY GMBH, priority 2011, dated 2017).

In series [1] the test system is Phytophthora infestans. Type of series: in vivo. The conditions noted are these: 100 ppm of active ingredient, preventive spray, inoculation one day after treatment, evaluated 7 days after inoculation.
The next series relates to Plasmopara viticola. Kind of series: Example I: in vivo preventive test on Plasmopara viticola (grapevine). Particulars: 144 h, 10 ppm of active ingredient, preventive spray on young plants, evaluated 6 days after inoculation, read-out: Eff. %. How it is done:
In Vivo Preventive Test on Plasmopara viticola (Grapevine)
To produce a suitable preparation of active compound, 1 part by weight of active compound is mixed with the stated amounts of solvent and emulsifier, and the concentrate is diluted with water to the desired concentration.
To test for preventive activity, young plants are sprayed with the preparation of active compound at the stated rate of application. After the spray coating has dried on, the plants are inoculated with an aqueous spore suspension of Plasmopara viticola and then remain for 1 day in an incubation cabinet at approximately 20° C. and a relative atmospheric humidity of 100%. The plant is subsequently placed for 4 days in a greenhouse at approximately 21° C. and a relative atmospheric humidity of approximately 90%. The plants are then misted and placed for 1 day in an incubation cabinet.
The test is evaluated 6 days after the inoculation. 0% means an efficacy which corresponds to that of the untreated control, while an efficacy of 100% means that no disease is observed.

For series [2] the following is noted: pH 2.7, LogP, HPLC on reversed phase columns, pH 2.7, 0.1% formic acid in water / acetonitrile gradient.
Series [3] concerns Phytophthora infestans. Kind of series: whole plant or invertebrate. The conditions noted are these: in Solanum lycopersicum, 120 h, read-out: % efficacy. The series is classed as in vivo.
A further series deals with Puccinia recondita. Kind of series: Example E: in vivo preventive test on Puccinia recondita (brown rust on wheat). Particulars: 500 ppm, preventive spray on wheat plants, contamination after 24 hours, grading 12 days after contamination vs control plants. On the procedure: In Vivo Preventive Test on Puccinia recondita (Brown Rust on Wheat)
The active ingredients tested are prepared by homogenization in a mixture of acetone/tween/DMSO, and then diluted with water to obtain the desired active material concentration.
Wheat plants (“Scipion” variety), sown in starter cups on a 50/50 peat soil-pozzolana substrate and grown at 22° C., are treated at the 1-leaf stage (10 cm height) by spraying with the active ingredient prepared as described above. Plants, used as controls, are treated with the mixture of acetone/tween/DMSO/water not containing the active material.
After 24 hours, the plants are contaminated by spraying the leaves with an aqueous suspension of Puccinia recondita spores (100 000 spores per ml). The spores are collected from an infected plant and are suspended in water containing 2.5 ml/l of Tween 80 at 10%. The contaminated wheat plants are incubated for 24 hours at 20° C. and at 100% relative humidity, and then for 10 days at 20° C. and at 70-80% relative humidity.
Grading (% of efficacy) is carried out 12 days after the contamination, in comparison with the control plants.
(§1) Under these conditions, good (at least 70%) or total protection is observed at a dose of 500 ppm with the following compounds: […]

The subject of a further series is Pyricularia oryzae. Kind of series: whole plant or invertebrate. The series is classed as in vivo. The conditions noted are these: 144 h, read-out: % efficacy.
Another series relates to Botrytis cinerea. Kind of series: Example B: in vivo preventive test on Botrytis cinerea (grey mould). Particulars: 500 ppm, preventive spray on gherkin plants, contamination after 24 hours, grading 4 to 5 days after contamination vs control plants. How it is done: In Vivo Preventive Test on Botrytis Cinerea (Grey Mould)
The active ingredients tested are prepared by homogenization in a mixture of acetone/tween/DMSO and then diluted with water to obtain the desired active material concentration.
Gherkin plants (“Vert petit de Paris” variety), sown in starter cups on a 50/50 peat soil-pozzolana substrate and grown at 24° C., are treated at the Z11 cotyledon stage by spraying with the active ingredient prepared as described above. Plants, used as controls, are treated with the mixture of acetone/tween/DMSO/water not containing the active material.
After 24 hours, the plants are contaminated by spraying the cotyledons with an aqueous suspension of cryopreserved Botrytis cinerea spores (50 000 spores per ml). The spores are suspended in a nutrient solution composed of 10 g/L of PDB, 50 g/L of D-Fructose, 2 g/L of NH4NO3 and 1 g/L of KH2PO4. The contaminated gherkin plants are incubated at 17° C. and at 90% relative humidity.
Grading (% of efficacy) is carried out 4 to 5 days after the contamination, in comparison with the control plants.
as §1

With `CCCCCCNc1cccc(CON=C(c2ccccc2)c2nc(=O)on2C)n1` [Example 5], the Eff. % with Phytophthora infestans [1] was found to be 95%. Besides, the pest or weed control at 10 ppm with Plasmopara viticola came to 96%. In series [2], the chromatographic logP – broadly, a lipophilicity value derived from retention on a column – was found to be 2.2.
On the same counts, the results for `Cn1oc(=O)nc1C(=NOCc1cccc(NCC2CCCCC2)n1)c1ccccc1` [Example 4] are 95%, 94% and 2.44.
As for `CC(C)CC(=O)Nc1cccc(CON=C(c2ccccc2)c2nc(=O)on2C)n1` [Example 19], the pest or weed control at 500 ppm with Phytophthora infestans [3] is 100%. Also, the “% efficacy” value in the series on Puccinia recondita was determined as 89%. This compound also had a chromatographic logP in series [2] of 2.82.
As to `C#CCCOC(=O)Nc1cccc(CON=C(c2cccc(F)c2)c2nc(=O)o[nH]2)n1` [Example 49], the pest or weed control at 500 ppm is 93% in the series on Phytophthora infestans [3] and 83% in the series with Pyricularia oryzae. In series [2], the chromatographic logP was 2.8.
Regarding `O=C(COc1ccccc1)Nc1cccc(CON=C(c2cccc(F)c2)c2nc(=O)o[nH]2)n1` [Example 51], the pest or weed control at 500 ppm with Phytophthora infestans [3] was found to be 100%; in the series with Pyricularia oryzae, 83%. In addition, in series [2], the chromatographic logP turned out to be 3.21.
For the compound `Cc1cccc(C(=NOCc2cccc(NC(=O)COc3ccccc3)n2)c2nc(=O)on2C)c1` [Example 55], the pest or weed control at 500 ppm turned out to be 100% in the series on Phytophthora infestans [3] and 83% in the series on Pyricularia oryzae. For the same compound, the “% efficacy” value in the series on Botrytis cinerea is 85%. This compound also had a chromatographic logP in series [2] of 3.39.
For the compound `CCCCCC(=O)Nc1cccc(CON=C(c2cccc(OC)c2)c2nc(=O)o[nH]2)n1` [Example 53], the pest or weed control at 500 ppm with Phytophthora infestans [3] was found to be 95%; in the series on Pyricularia oryzae, 75%. In series [2], this compound returned a chromatographic logP of 3.31.
The matching figures for `CCCCC(=O)Nc1cccc(CON=C(c2cccc(OC)c2)c2nc(=O)o[nH]2)n1` [Example 54]: 100%, 83% and 2.96.
Consider `Cn1oc(=O)nc1/C(=N\OCc1cccc(NC(=O)OC(C)(C)C)n1)c1cccc(F)c1` [Example 20, tert-butyl {6-[({[(Z)-(2-methyl-5-oxo-2,5-dihydro-1,2,4-oxadiazol-3-yl)(3-fluorophenyl)methylene]amino}oxy)methyl]pyridin-2-yl}carbamate], for which the pest or weed control at 500 ppm with Phytophthora infestans [3] was 100%; with Pyricularia oryzae, 81%. For the same compound, the pest or weed control at 10 ppm in the series on Plasmopara viticola was determined as 74%. For the same compound, in series [2], the chromatographic logP came to 3.46.
For the compound `CC(C)CCOC(=O)Nc1cccc(CON=C(c2cccc(F)c2)c2nc(=O)o[nH]2)n1` [Example 52], the pest or weed control at 500 ppm amounted to 100% in the series on Phytophthora infestans [3] and 75% in the series with Pyricularia oryzae. In series [2], this compound had a chromatographic logP of 3.83.
Regarding `Cn1oc(=O)nc1/C(=N\OCc1cccc(NC(=O)OCCc2ccccc2)n1)c1ccccc1` [Example 15, 2-phenylethyl {6-[({[(Z)-(2-methyl-5-oxo-2,5-dihydro-1,2,4-oxadiazol-3-yl)(phenyl)methylene]amino}oxy)methyl]pyridin-2-yl}carbamate], in the series on Phytophthora infestans [3], the pest or weed control at 500 ppm was 99%. Also, the pest or weed control at 10 ppm with Plasmopara viticola came to 94%. The chromatographic logP in series [2] stood at 3.57.
On to `Cn1oc(=O)nc1C(=NOCc1cccc(NC(=O)c2cccc(F)c2)n1)c1ccccc1` [Example 10], for which the pest or weed control at 500 ppm was 99% with Phytophthora infestans [3] and 79% in the series on Pyricularia oryzae. Also, the “% efficacy” value with Botrytis cinerea was found to be 71%. Further, the chromatographic logP in series [2] worked out at 3.11.
For `CCCCOC(=O)Nc1cccc(CON=C(c2ccccc2)c2nc(=O)on2C)n1` [Example 14], the pest or weed control at 500 ppm with Phytophthora infestans [3] is 100%. The pest or weed control at 10 ppm with Plasmopara viticola was 94%. The compound further returned a chromatographic logP in series [2] of 3.39.
For the compound `CCCC(C)C(=O)Nc1cccc(CON=C(c2ccccc2)c2nc(=O)on2C)n1` (stereo not shown) [Example 18], the pest or weed control at 500 ppm in the series with Phytophthora infestans [3] was 100%. Besides, the “% efficacy” value with Puccinia recondita was 78%. Also, the chromatographic logP in series [2] is 3.19.
Turning to `Cn1oc(=O)nc1C(=NOCc1cccc(NCCc2ccccc2)n1)c1ccccc1` [Example 7], in the series on Phytophthora infestans [1], the Eff. % is on record as 95%. Further, the pest or weed control at 10 ppm with Plasmopara viticola worked out at 96%. This compound also registered a chromatographic logP in series [2] of 2.23.
`Cn1oc(=O)nc1C(=NOCc1cccc(NC(=O)C(C)(C)C)n1)c1ccccc1` [Example 9]: the pest or weed control at 500 ppm with Phytophthora infestans [3] worked out at 99%; in the series with Pyricularia oryzae it was 71%. Besides, the “% efficacy” value in the series on Puccinia recondita amounted to 71%. The compound further showed a chromatographic logP in series [2] of 2.86.
The compound `Cn1oc(=O)nc1/C(=N\OCc1cccc(NC(=O)OC(C)(C)C)n1)c1ccccc1` [Example 2, tert-butyl {6-[({[(Z)-(2-methyl-5-oxo-2,5-dihydro-1,2,4-oxadiazol-3-yl)(phenyl)methylene]amino}oxy)methyl]pyridin-2-yl}carbamate] yielded an Eff. % in the series with Phytophthora infestans [1] of 100%. The pest or weed control at 10 ppm in the series on Plasmopara viticola was 100%. Moreover, the chromatographic logP in series [2] was 3.31.
In the series with Phytophthora infestans [1], `CCCCOCCNc1cccc(CON=C(c2ccccc2)c2nc(=O)on2C)n1` [Example 6] displayed an Eff. % of 95%. Further, the chromatographic logP in series [2] is 2.13.
Regarding `COc1cccc(C(=NOCc2cccc(NC(=O)C(C)Oc3ccccc3)n2)c2nc(=O)o[nH]2)c1` (stereo not shown) [Example 44], the results for the pest or weed control at 500 ppm in the series on Phytophthora infestans [3] and in the series with Pyricularia oryzae were 100% and 83%, respectively. The chromatographic logP in series [2] is 3.39.
On to `C#CCCOC(=O)Nc1cccc(CO/N=C(/c2ccccc2)c2nc(=O)on2C)n1` [Example 1, but-3-yn-1-yl {6-[({[(Z)-(2-methyl-5-oxo-2,5-dihydro-1,2,4-oxadiazol-3-yl)(phenyl)methylene]amino}oxy)methyl]pyridin-2-yl}carbamate], for which the Eff. % with Phytophthora infestans [1] is recorded as 98%. Besides, the pest or weed control at 10 ppm in the series on Plasmopara viticola was found to be 99%. Besides, the chromatographic logP in series [2] was found to be 2.71.
In the case of `C#CCC(C)(C)OC(=O)Nc1cccc(CO/N=C(/c2ccccc2)c2nc(=O)on2C)n1` [Example 35, 2-methylpent-4-yn-2-yl {6-[({[(Z)-(2-methyl-5-oxo-2,5-dihydro-1,2,4-oxadiazol-3-yl)(phenyl)methylene]amino}oxy)methyl]pyridin-2-yl}carbamate], the pest or weed control at 500 ppm in the series on Phytophthora infestans [3] was found to be 100%. In addition, the “% efficacy” value in the series on Botrytis cinerea was found to be 90%. For the same compound, the pest or weed control at 10 ppm in the series on Plasmopara viticola is 100%. Besides, the chromatographic logP in series [2] came out at 3.31.
Regarding `O=C(CCc1ccccc1)Nc1cccc(CON=C(c2cccc(F)c2)c2nc(=O)o[nH]2)n1` [Example 47], the pest or weed control at 500 ppm was 100% with Phytophthora infestans [3] and 75% in the series with Pyricularia oryzae. In addition, in series [2], the chromatographic logP was determined as 3.29.
As for `COc1cccc(C(=NOCc2cccc(NC(=O)OC(C)(C)C)n2)c2nc(=O)on2C)c1` [Example 22], the “% efficacy” value in the series with Puccinia recondita worked out at 94%. This compound also gave a chromatographic logP in series [2] of 3.39.
`Cn1oc(=O)nc1C(=NOCc1cccc(NC(=O)OCc2ccccc2)n1)c1ccccc1` [Example 17]: the pest or weed control at 500 ppm in the series with Phytophthora infestans [3] was found to be 100%. In addition, the “% efficacy” value in the series with Puccinia recondita turned out to be 83%. The pest or weed control at 10 ppm in the series with Plasmopara viticola was determined as 82%. The compound further yielded a chromatographic logP in series [2] of 3.41.
For `C#CCOC(=O)Nc1cccc(CON=C(c2cccc(F)c2)c2nc(=O)o[nH]2)n1` [Example 46], the pest or weed control at 500 ppm in the series on Phytophthora infestans [3] amounted to 100%; in the series with Pyricularia oryzae, 83%. The chromatographic logP in series [2] was found to be 2.69.
